# Laboratory results taken from patent US20230339889A1, “DERIVATIVES OF 2-OXO-N-(4-(PYRIMIDIN-4-YLOXY/THIO)PHENYL)-1,2-DIHYDROPYRIDINE-3-CARBOXAMIDE FOR USE AS PROTEIN KINASE INHIBITORS FOR THERAPY” (AUCENTRA THERAPEUTICS PTY LTD, priority 2020, published 2023).
# Key:
# MV4-11 = assay: Proliferation assay (MTT, leukaemia cancer cell line); type: cell-based; conditions: Homo sapiens; 1 µM compound, MV4-11 cells
# Text: Compounds from Example 1 were subjected to standard resazurin and MTT assays on solid tumour and leukaemia cancer cell lines, respectively, as previously reported (Wang S et al., J Med Chem 47:1662-1675, 2004 and Diab S et al., CheMedChem 9:962-972, 2014).
# MET = molecular target: T1, MET (Homo sapiens, UniProt P08581); assay: Filter-binding radiometric kinase activity assay (KinaseProfiler, Eurofins); type: biochemical; conditions: 1 µM compound; read-out: % Residual enzymatic activity at 1 µM MET
# T1 construct: purchased Eurofins Discovery (Kinase Profiler service)
# Method: (§1) Filter-binding radiometric kinase activity assay (Kinase Profiler™) from Eurofins Discovery was used to determine the % of inhibition and/or IC50 values. […] The reaction is initiated by the addition of the Mg/ATP mixture. After incubation for 40 minutes at room temperature, the reaction is stopped by the addition of phosphoric acid to a concentration of 0.5%. 10 µL of the reaction is then spotted onto a P30 filter mat and washed four times for 4 minutes in 0.425% phosphoric acid and once in methanol prior to drying and scintillation counting. The IC50 values were derived by fitting a sigmoidal dose-response curve to a plot of assay readout over inhibitor concentration. All fits were computed with the GraphPad Prism Software (San Diego, CA, United States of America). Ki values were derived from IC5o values using Cheng Prusoff equation (Cheng Y et al., Biochem Pharmacol 22(23):3099-3108, 1973).
# AXL = molecular target: T2, AXL (Homo sapiens, UniProt P30530); assay: as above; type: biochemical; conditions: 1 µM compound; read-out: % Residual enzymatic activity at 1 µM AXL
# T2 construct: purchased Eurofins Discovery (Kinase Profiler service)
# T2 sequence (P30530 26-894): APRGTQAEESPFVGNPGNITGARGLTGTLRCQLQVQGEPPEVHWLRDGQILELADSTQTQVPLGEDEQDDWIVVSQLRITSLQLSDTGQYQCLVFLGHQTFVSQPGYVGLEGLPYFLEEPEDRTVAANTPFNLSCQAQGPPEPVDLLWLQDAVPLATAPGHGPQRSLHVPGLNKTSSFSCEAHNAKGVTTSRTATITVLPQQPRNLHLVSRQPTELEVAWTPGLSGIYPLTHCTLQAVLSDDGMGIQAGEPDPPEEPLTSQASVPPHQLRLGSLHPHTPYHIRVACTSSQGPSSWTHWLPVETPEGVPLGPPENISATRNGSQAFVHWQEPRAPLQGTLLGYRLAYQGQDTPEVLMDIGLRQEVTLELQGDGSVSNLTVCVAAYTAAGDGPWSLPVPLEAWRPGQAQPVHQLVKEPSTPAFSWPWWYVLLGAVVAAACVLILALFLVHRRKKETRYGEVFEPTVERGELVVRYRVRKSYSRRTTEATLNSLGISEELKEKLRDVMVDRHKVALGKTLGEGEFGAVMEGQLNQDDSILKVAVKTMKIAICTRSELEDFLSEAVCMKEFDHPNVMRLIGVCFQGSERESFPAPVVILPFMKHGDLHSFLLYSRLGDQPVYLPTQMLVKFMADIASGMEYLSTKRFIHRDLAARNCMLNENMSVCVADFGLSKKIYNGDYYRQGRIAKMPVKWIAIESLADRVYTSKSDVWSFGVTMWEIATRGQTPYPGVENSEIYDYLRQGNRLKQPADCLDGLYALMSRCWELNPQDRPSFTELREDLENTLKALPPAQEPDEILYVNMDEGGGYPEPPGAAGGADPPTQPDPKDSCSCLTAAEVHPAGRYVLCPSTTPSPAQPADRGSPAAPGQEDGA
# Method: as §1
# Mer = molecular target: T3, Mer (Homo sapiens, UniProt Q12866); assay: as above; type: biochemical; conditions: 1 µM compound; read-out: % Residual enzymatic activity at 1 µM Mer
# T3 construct: purchased Eurofins Discovery (Kinase Profiler service)
# T3 sequence (Q12866 21-999): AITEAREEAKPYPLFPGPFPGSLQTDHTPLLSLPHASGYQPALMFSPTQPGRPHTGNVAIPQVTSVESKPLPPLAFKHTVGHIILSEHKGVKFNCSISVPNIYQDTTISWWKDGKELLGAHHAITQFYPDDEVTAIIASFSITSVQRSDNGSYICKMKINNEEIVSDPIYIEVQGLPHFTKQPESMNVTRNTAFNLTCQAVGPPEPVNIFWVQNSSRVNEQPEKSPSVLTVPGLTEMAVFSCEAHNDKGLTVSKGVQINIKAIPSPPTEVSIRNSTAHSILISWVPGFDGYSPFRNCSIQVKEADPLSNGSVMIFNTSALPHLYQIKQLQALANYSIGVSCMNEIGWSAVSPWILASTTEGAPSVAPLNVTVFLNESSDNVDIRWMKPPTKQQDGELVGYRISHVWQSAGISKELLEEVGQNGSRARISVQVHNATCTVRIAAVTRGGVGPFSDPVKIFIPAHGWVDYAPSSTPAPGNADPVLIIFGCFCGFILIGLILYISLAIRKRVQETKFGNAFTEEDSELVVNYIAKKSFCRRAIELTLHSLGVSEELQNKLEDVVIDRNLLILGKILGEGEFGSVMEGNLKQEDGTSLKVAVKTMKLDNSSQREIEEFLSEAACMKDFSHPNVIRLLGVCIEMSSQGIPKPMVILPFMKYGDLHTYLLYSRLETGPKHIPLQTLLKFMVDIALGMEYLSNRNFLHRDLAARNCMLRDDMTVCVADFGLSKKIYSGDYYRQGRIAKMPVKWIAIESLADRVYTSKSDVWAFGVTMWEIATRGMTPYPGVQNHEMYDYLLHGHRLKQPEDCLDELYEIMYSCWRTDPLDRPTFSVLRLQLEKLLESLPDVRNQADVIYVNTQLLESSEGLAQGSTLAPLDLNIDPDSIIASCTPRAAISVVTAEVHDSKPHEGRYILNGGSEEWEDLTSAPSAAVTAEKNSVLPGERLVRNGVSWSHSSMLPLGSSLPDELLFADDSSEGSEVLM
# Method: as §1
# TYRO3 = molecular target: T4, TYRO3 (Homo sapiens, UniProt Q06418); assay: as above; type: biochemical; conditions: 1 µM compound; read-out: % Residual enzymatic activity at 1 µM TYRO3
# T4 construct: purchased Eurofins Discovery (Kinase Profiler service)
# T4 sequence (Q06418 41-890): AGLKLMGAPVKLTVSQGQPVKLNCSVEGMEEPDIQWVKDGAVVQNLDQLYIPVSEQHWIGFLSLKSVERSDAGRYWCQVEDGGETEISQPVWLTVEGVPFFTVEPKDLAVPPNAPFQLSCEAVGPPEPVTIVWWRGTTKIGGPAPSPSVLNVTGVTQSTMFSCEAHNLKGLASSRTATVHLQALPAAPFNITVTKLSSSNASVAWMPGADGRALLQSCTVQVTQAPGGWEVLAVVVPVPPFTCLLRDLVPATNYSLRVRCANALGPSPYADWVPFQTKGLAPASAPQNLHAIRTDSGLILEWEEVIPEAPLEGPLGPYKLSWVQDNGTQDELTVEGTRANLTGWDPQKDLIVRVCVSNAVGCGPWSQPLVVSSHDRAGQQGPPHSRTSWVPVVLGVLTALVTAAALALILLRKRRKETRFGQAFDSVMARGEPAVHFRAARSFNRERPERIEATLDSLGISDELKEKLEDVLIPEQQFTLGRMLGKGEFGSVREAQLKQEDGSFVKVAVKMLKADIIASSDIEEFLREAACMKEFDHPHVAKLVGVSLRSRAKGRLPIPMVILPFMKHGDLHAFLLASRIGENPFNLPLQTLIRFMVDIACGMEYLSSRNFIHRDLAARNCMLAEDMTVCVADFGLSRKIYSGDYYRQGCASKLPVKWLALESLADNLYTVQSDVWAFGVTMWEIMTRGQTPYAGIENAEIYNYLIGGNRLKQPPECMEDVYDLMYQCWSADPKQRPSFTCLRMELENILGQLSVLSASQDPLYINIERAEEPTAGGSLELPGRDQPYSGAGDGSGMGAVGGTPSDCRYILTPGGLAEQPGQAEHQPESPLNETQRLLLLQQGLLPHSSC
# Method: as §1
# CDK2E = CDK2E (Homo sapiens, UniProt P24941); assay: ADP Glo Kinase assay; type: biochemical; conditions: 1 µM compound; read-out: % Residual enzymatic activity at 1 µM CDK2E
# Method: Inhibition of CDKs and FLT3 were determined using ADP Glo Kinase assays, as previously described in International Patent Publication No WO 2017/020065.
# T1 sequence (P08581 25-1390): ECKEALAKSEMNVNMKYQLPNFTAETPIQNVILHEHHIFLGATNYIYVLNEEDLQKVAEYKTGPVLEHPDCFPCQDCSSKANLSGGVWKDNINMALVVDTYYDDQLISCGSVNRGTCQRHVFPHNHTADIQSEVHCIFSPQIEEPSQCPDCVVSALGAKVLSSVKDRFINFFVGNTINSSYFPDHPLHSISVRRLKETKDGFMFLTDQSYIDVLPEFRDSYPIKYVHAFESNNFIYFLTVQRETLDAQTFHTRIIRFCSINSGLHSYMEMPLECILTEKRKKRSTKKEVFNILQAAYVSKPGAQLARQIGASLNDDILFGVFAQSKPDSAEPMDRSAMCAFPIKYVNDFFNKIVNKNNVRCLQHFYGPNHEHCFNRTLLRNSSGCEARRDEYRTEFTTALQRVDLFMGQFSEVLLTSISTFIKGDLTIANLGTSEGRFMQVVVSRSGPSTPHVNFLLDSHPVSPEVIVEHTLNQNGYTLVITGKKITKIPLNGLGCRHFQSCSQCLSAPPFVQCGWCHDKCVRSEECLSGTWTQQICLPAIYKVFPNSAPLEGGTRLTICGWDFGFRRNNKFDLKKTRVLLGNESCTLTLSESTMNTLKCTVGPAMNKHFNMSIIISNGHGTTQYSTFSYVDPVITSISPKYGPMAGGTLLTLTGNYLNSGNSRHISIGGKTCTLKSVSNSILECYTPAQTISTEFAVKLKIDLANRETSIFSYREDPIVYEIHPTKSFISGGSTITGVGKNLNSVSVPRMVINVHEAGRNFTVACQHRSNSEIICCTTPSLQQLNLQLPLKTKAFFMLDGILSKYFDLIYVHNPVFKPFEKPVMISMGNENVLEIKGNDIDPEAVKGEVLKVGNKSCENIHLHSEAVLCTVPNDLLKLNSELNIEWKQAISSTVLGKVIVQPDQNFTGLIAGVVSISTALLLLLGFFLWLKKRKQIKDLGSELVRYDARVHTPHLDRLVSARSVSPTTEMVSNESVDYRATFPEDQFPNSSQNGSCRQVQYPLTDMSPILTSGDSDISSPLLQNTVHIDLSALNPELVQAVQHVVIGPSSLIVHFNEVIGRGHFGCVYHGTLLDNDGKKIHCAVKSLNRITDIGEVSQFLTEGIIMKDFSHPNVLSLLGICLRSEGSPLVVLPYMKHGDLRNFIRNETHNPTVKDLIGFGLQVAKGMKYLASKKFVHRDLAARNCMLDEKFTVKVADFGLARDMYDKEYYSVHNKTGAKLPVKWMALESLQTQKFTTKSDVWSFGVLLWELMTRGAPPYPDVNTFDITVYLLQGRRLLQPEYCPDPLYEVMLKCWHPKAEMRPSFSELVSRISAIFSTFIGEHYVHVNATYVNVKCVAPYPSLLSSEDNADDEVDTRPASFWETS
Structure (SMILES),activity at 1 µM (MV4-11),remaining activity at 1 µM (MET),remaining activity at 1 µM (AXL),remaining activity at 1 µM (Mer),remaining activity at 1 µM (TYRO3),remaining activity at 1 µM (CDK2E)
"Nc1ncc(Cl)c(Oc2ccc(NC(=O)c3cccn(-c4ccc(F)cc4)c3=O)cc2F)n1 [Cmpd 24, N-(4-((2-amino-5-chloropyrimidin-4-yl)oxy)-3-fluorophenyl)-1-(4-fluorophenyl)-2-oxo-1,2-dihydropyridine-3-carboxamide]",27%,74%,99%,87%,94%,
"Nc1ncnc(Sc2ccc(NC(=O)c3cccn(-c4ccc(F)cc4)c3=O)cc2F)c1F [Cmpd 19, N-(4-((6-amino-5-fluoropyrimidin-4-yl)thio)-3-fluorophenyl)-1-(4-fluorophenyl)-2-oxo-1,2-dihydropyridine-3-carboxamide]",6%,78%,84%,99%,89%,93%
"Nc1ncnc(Oc2ccc(NC(=O)c3cccn(-c4ccc(Cl)cc4)c3=O)c(F)c2)c1Cl [Cmpd 33, N-(4-((6-amino-5-chloropyrimidin-4-yl)oxy)-2-fluorophenyl)-1-(4-chlorophenyl)-2-oxo-1,2-dihydropyridine-3-carboxamide]",1%,10%,23%,74%,6%,82%
"Nc1ncc(Cl)c(Oc2ccc(NC(=O)c3cccn(-c4ccc(F)cc4)c3=O)c(F)c2)n1 [Cmpd 25, N-(4-((2-amino-5-chloropyrimidin-4-yl)oxy)-2-fluorophenyl)-1-(4-fluorophenyl)-2-oxo-1,2-dihydropyridine-3-carboxamide]",65%,87%,92%,88%,89%,
"Cc1ccc(-n2cccc(C(=O)Nc3ccc(Oc4ncnc(N)c4Cl)cc3F)c2=O)cc1 [Cmpd 15, N-(4-((6-amino-5-chloropyrimidin-4-yl)oxy)-2-fluorophenyl)-2-oxo-1-(p-tolyl)-1,2-dihydropyridine-3-carboxamide]",26%,74%,64%,99%,39%,
"Nc1ncnc(Nc2ccc(NC(=O)c3cccn(-c4ccc(F)cc4)c3=O)cc2F)c1Cl [Cmpd 36, N-(4-((6-amino-5-chloropyrimidin-4-yl)amino)-3-fluorophenyl)-1-(4-fluorophenyl)-2-oxo-1,2-dihydropyridine-3-carboxamide]",4%,87%,97%,99%,70%,96%
"Nc1ncnc(Oc2ccc(NC(=O)c3cccn(-c4ccc(F)cc4)c3=O)c(Cl)c2)c1F [Cmpd 38, N-(4-((6-amino-5-fluoropyrimidin-4-yl)oxy)-2-chlorophenyl)-1-(4-fluorophenyl)-2-oxo-1,2-dihydropyridine-3-carboxamide]",43%,68%,69%,92%,50%,90%
"Nc1ncnc(Oc2cc(F)c(NC(=O)c3cccn(-c4ccc(F)cc4)c3=O)cc2F)c1F [Cmpd 20, N-(4-((6-amino-5-fluoropyrimidin-4-yl)oxy)-2,5-difluorophenyl)-1-(4-fluorophenyl)-2-oxo-1,2-dihydropyridine-3-carboxamide]",5%,4%,31%,54%,2%,93%
"Nc1ncnc(Sc2ccc(NC(=O)c3cccn(-c4ccc(F)cc4)c3=O)c(F)c2)c1Cl [Cmpd 39, N-(4-((6-amino-5-chloropyrimidin-4-yl)thio)-2-fluorophenyl)-1-(4-fluorophenyl)-2-oxo-1,2-dihydropyridine-3-carboxamide]",4%,70%,87%,82%,,88%
